The source of these data is ChEMBL document CHEMBL4507293 (2021).

In data set [1] the target is Sodium-dependent dopamine transporter (Homo sapiens) (UniProt Q01959). To be noted: Compound concentration 10.0 uM.
The target of data set [2] is Histamine H1 receptor (Homo sapiens) (UniProt P35367). The following applies: Compound concentration 10.0 uM.
Data set [3] deals with Sodium-dependent noradrenaline transporter (Homo sapiens) (UniProt P23975). The following applies: Compound concentration 10.0 uM.
In data set [4] the target is ATP-sensitive inward rectifier potassium channel 11 (Cricetulus griseus) (UniProt A0A3L7HHE1). Description: Inhibition of Potassium Channel [KATP] at 10 µM in the Eurofins-Panlabs radioligand binding assay (Eurofins_assay_265600). To be noted: Cricetinae; Compound concentration 10.0 uM.
Chain of ATP-sensitive inward rectifier potassium channel 11 (Cricetulus griseus) (A0A3L7HHE1 as listed by the source): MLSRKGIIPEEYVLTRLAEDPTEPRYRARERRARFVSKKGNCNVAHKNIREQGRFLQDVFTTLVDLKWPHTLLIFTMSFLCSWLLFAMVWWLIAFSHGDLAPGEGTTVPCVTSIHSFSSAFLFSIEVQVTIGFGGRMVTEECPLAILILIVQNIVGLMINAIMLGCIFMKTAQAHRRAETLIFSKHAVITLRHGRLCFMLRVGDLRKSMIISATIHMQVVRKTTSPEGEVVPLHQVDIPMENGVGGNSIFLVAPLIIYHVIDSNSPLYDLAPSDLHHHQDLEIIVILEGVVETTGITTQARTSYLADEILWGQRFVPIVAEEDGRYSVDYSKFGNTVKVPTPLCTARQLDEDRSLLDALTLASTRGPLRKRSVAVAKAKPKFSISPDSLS
In data set [5] the target is Purinergic P2Y (Rattus norvegicus) (UniProt O35811+Q9EPX4+P49651+Q63371+P41232+O35881+Q6GUG4). To be noted: Compound concentration 10.0 uM.
Data set [6] concerns the target Glutamate receptor 2 (Homo sapiens) (UniProt P42262). To be noted: Rattus norvegicus; Compound concentration 10.0 uM.
For data set [7], the target named is Mitogen-activated protein kinase 3 (Homo sapiens) (UniProt P27361). Description: Inhibition of Protein Serine/Threonine Kinase, MAPK3 (ERK1) at 10 µM in the Eurofins-Panlabs enzyme assay (Eurofins_assay_171000). To be noted: Compound concentration 10.0 uM.
Data set [8] has as its target C-C chemokine receptor type 1 (Homo sapiens) (UniProt P32246). Description: Chemokine CCR1 Eurofins-Panlabs radioligand binding assay. The following applies: Compound concentration 10.0 uM.
For data set [9], the target named is Adenosine Transporter (Cavia porcellus) (UniProt H0V4R7+H0UUG1+H0V3Z5). Description: (§1) Inhibition of Transporter, Adenosine at compound concentration of 10.0 uM in the Eurofins-Panlabs radioligand binding assay (Eurofins_assay_202000). In kind it is protein assay. Also noted: ligand concentration 0.5 nM, non-specific ligand with concentration 5 uM Nitrobenzylthioinosine, incubation time 30 min, incubation temperature 25 C.

Another data set deals with Adenosine Transporter (Cavia porcellus, UniProt H0V4R7+H0UUG1+H0V3Z5). The data set is described as §1. In kind it is protein assay. The arrangement: ligand concentration 0.5 nM, non-specific ligand with concentration 5 uM Nitrobenzylthioinosine, incubation time 30 min, incubation temperature 25 C.
Data set [10] has as its target Somatostatin receptor type 2 (Homo sapiens) (UniProt P30874). Description: Somatostatin sst2 Eurofins-Panlabs radioligand binding assay. The arrangement: ligand concentration 0.03 nM. To be noted: Compound concentration 10.0 uM.
The target of data set [11] is Sodium-dependent serotonin transporter (Homo sapiens) (UniProt P31645). The following applies: Compound concentration 10.0 uM.
For data set [12], the target named is Endothelin-1 receptor (Homo sapiens) (UniProt P25101). The following applies: Compound concentration 10.0 uM.
For data set [13], the target named is Prostaglandin F2-alpha receptor (Homo sapiens) (UniProt P43088). Nature of the data set: Prostanoid FP Eurofins-Panlabs radioligand binding assay. Also noted: ligand concentration 0.95 nM. To be noted: Compound concentration 10.0 uM.
Data set [14] has as its target Glutamate NMDA receptor (Rattus norvegicus) (UniProt P35439+Q00959+Q00960+Q00961+Q62645+Q8VHN2+Q9R1M7). The following applies: Compound concentration 10.0 uM.
Data set [15] addresses Acetylcholinesterase (Homo sapiens) (UniProt P22303). To be noted: Compound concentration 10.0 uM.
Data set [16] deals with T1, Alpha-1A adrenergic receptor (Homo sapiens) (UniProt P35348).
T1 sequence (whole entry): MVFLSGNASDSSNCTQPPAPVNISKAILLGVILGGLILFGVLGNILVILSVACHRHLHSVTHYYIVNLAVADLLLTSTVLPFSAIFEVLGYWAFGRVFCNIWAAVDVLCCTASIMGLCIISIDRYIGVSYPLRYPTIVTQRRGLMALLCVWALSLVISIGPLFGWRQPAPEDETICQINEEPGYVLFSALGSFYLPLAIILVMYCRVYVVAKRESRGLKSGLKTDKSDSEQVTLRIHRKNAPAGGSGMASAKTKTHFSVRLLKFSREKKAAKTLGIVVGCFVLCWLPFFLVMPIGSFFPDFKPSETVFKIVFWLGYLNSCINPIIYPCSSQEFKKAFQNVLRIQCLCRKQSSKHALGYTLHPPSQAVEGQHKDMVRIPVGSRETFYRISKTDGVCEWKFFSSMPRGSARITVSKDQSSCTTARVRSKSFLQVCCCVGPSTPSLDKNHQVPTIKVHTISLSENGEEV
To be noted: Rattus norvegicus; Compound concentration 10.0 uM.

For the next data set, the target named is Caspase-3 (Homo sapiens) (UniProt P42574). Description: Peptidase, CASP3 (Caspase 3) Eurofins-Panlabs enzyme assay. To be noted: Compound concentration 10.0 uM.
Chain of Caspase-3 (Homo sapiens) (P42574 29-175 limits assumed): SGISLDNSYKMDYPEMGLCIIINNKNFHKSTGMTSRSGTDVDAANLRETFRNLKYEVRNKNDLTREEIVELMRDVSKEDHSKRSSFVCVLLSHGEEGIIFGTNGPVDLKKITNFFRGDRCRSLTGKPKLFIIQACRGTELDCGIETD
Chain of Caspase-3 (Homo sapiens) (P42574 176-277 limits assumed): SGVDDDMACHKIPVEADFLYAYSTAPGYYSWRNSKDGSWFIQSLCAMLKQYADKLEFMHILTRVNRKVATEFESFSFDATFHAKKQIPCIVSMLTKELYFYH
In data set [17] the target is 5-hydroxytryptamine receptor 2B (Homo sapiens) (UniProt P41595). The following applies: Compound concentration 10.0 uM.
In data set [18] the target is Cholecystokinin receptor type A (Homo sapiens) (UniProt P32238). Description: Inhibition of Cholecystokinin CCK1 (CCKA) at 10 µM in the Eurofins-Panlabs radioligand binding assay (Eurofins_assay_218020). The following applies: Compound concentration 10.0 uM.
In data set [19] the target is Type-1 angiotensin II receptor (Homo sapiens) (UniProt P30556). Nature of the data set: Angiotensin AT1 Eurofins-Panlabs radioligand binding assay. To be noted: Compound concentration 10.0 uM.
Chain of Type-1 angiotensin II receptor (Homo sapiens) (P30556 whole entry): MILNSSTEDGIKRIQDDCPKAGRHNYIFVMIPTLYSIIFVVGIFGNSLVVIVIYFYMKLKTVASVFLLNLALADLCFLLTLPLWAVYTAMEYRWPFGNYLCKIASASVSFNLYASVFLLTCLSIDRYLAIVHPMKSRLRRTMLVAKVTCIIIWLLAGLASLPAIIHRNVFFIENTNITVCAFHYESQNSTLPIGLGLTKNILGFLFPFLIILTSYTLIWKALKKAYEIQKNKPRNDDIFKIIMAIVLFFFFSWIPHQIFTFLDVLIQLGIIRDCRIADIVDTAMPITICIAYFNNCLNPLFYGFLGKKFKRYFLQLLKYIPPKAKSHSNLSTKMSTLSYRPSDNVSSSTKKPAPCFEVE
The species entered for the next data set is Homo sapiens. Description: Glutamate, Metabotropic, mGlu5 Eurofins-Panlabs radioligand binding assay. To be noted: Compound concentration 10.0 uM.
The target in data set [20] is T2, 5-hydroxytryptamine receptor 2C (Homo sapiens) (UniProt P28335).
T2 sequence (whole entry): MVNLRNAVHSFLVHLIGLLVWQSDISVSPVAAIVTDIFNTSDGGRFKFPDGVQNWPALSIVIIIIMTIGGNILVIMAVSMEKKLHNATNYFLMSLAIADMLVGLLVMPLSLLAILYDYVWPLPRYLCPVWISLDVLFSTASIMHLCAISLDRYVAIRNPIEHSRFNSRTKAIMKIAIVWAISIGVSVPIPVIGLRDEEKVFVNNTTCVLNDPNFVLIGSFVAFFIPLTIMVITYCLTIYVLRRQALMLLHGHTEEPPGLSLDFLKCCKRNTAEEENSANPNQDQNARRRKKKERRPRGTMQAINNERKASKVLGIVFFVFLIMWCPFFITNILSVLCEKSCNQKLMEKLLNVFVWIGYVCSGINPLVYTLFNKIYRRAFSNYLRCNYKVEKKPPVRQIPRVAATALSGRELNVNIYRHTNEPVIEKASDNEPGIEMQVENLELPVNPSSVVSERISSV
To be noted: Compound concentration 10.0 uM.

The target in data set [21] is Monoamine oxidase B (MAO-B) (Homo sapiens, UniProt P27338). Nature of the data set: Inhibition of Monoamine Oxidase MAO-B at compound concentration of 10.0 uM in the Eurofins-Panlabs enzyme assay (Eurofins_assay_140120). The arrangement: substrate with concentration 50 uM Kynuramine, incubation time 60 min, incubation temperature 37 C. The following applies: recombinant human MAO-B expressed in insect Hi5 cells, probe kynuramine, compound concentration 10 uM.

Data set [22] deals with Vasopressin V1a receptor (Homo sapiens) (UniProt P37288). The following applies: Compound concentration 10.0 uM.
Chain of Vasopressin V1a receptor (Homo sapiens) (P37288 whole entry, looked up): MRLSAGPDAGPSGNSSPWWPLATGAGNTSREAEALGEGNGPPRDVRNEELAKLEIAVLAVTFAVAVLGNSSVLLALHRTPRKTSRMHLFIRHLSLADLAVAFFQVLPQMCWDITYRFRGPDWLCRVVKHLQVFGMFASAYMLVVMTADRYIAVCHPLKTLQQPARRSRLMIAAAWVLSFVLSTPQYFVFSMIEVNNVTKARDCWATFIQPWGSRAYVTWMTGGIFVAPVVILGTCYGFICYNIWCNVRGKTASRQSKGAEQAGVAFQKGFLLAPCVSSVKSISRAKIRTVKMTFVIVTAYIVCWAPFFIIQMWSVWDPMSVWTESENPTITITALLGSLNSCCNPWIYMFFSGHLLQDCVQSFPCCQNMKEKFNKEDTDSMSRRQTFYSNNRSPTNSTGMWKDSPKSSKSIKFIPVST
Another data set concerns the target Caspase-9 (Homo sapiens) (UniProt P55211). Description: Peptidase, CASP9 (Caspase 9) Eurofins-Panlabs enzyme assay. The following applies: Compound concentration 10.0 uM. Also noted: substrate with concentration.
The target in data set [23] is Substance-K receptor (Homo sapiens) (UniProt P21452). Nature of the data set: Inhibition of Tachykinin NK2 at 10 µM in the Eurofins-Panlabs radioligand binding assay (Eurofins_assay_255600). The following applies: Compound concentration 10.0 uM. The arrangement: ligand concentration 0.5 nM.
Chain of Substance-K receptor (Homo sapiens) (P21452 whole entry): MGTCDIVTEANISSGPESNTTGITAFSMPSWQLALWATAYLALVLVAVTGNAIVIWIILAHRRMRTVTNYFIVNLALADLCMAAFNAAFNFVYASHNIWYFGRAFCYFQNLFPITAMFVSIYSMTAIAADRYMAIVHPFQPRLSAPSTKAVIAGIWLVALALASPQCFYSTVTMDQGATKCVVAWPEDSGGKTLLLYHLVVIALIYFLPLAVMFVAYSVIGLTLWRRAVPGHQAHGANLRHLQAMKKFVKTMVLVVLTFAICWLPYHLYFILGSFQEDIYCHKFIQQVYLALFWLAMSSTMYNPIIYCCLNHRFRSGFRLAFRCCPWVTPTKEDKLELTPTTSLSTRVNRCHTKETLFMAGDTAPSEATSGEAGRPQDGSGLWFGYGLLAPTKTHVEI
For data set [24], the target named is Prostaglandin E2 receptor EP3 subtype (Homo sapiens) (UniProt P43115). Nature of the data set: Prostanoid EP3 Eurofins-Panlabs radioligand binding assay. Also noted: ligand concentration 0.5 nM, non-specific ligand with concentration 10 µM Prostaglandin EŽ2 (PGE2), incubation time 60 min, incubation temperature 25 °C. The following applies: Compound concentration 10.0 uM.
Chain of Prostaglandin E2 receptor EP3 subtype (Homo sapiens) (P43115 whole entry): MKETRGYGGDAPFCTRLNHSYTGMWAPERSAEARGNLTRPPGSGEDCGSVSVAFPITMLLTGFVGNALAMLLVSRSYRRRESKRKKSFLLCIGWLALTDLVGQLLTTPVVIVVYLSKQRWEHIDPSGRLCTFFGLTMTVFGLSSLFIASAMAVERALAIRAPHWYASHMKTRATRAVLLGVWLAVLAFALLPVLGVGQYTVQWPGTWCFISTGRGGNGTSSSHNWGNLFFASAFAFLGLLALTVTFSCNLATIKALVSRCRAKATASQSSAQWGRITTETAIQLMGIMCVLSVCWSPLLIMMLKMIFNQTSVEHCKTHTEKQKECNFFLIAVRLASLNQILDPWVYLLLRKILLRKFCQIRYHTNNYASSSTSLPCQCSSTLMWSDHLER

Chain of Acetylcholinesterase (Homo sapiens) (P22303 whole entry): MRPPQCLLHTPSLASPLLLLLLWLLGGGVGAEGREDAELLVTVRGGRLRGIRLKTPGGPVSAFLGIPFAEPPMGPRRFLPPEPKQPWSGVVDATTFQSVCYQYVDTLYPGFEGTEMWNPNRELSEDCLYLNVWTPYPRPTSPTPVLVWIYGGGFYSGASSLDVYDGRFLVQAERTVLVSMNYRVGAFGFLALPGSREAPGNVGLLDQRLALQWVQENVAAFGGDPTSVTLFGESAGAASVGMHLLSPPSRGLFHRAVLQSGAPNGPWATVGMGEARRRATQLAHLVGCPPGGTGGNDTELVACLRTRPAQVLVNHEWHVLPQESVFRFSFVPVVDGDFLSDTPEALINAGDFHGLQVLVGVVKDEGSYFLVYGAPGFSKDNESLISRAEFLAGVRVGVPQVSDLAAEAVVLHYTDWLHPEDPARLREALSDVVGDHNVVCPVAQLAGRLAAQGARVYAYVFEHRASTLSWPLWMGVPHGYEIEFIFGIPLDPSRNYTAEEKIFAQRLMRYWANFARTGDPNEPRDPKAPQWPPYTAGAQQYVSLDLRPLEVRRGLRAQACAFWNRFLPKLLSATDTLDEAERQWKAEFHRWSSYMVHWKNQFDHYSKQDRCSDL
Chain of Histamine H1 receptor (Homo sapiens) (P35367 whole entry): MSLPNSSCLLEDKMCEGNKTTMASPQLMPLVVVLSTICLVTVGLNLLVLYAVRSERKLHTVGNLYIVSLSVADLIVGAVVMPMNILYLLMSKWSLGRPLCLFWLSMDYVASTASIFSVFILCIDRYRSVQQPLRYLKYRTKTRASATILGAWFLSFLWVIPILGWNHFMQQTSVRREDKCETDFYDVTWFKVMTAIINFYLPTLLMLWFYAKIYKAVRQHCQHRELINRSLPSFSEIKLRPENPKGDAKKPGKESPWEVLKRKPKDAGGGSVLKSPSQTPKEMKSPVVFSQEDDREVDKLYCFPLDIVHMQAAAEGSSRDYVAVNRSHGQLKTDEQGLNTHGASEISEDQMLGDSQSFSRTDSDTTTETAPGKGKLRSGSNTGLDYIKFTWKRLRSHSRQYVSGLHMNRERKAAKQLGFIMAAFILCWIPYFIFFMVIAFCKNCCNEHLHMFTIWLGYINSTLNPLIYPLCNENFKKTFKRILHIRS
Chain of C-C chemokine receptor type 1 (Homo sapiens) (P32246 whole entry): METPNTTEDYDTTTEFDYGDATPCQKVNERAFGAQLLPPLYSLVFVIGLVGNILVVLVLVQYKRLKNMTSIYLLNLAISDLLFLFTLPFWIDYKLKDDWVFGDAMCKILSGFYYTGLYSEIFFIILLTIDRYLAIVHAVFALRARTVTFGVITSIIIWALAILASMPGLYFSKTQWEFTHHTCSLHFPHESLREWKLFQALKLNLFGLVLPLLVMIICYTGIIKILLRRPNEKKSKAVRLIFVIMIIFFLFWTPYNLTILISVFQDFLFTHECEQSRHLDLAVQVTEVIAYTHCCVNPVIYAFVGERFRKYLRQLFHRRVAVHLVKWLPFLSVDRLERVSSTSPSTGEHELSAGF
Chain of Glutamate receptor 2 (Homo sapiens) (P42262 whole entry): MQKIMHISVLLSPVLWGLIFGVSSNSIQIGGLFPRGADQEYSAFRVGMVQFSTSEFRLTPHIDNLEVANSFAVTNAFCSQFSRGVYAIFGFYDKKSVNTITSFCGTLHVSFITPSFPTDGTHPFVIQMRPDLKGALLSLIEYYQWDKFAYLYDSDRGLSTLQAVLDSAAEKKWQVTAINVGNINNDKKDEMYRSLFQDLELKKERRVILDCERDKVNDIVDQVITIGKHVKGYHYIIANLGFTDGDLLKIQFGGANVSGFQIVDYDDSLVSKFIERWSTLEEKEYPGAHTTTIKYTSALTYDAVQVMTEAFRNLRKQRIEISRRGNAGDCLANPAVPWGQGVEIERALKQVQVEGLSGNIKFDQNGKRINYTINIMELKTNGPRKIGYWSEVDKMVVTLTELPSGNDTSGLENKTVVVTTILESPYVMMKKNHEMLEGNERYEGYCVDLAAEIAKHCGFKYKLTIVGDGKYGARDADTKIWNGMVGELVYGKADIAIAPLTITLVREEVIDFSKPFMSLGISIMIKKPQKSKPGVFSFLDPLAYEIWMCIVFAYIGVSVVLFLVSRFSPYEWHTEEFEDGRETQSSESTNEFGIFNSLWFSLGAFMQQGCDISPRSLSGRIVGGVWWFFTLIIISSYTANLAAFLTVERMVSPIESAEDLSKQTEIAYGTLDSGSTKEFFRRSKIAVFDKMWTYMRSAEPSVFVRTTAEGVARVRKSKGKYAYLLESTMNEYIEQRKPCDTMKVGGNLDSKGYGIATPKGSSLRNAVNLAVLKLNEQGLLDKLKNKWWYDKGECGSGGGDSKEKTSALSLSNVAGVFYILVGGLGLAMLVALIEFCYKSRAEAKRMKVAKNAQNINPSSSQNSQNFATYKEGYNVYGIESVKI
Chain of Somatostatin receptor type 2 (Homo sapiens) (P30874 whole entry): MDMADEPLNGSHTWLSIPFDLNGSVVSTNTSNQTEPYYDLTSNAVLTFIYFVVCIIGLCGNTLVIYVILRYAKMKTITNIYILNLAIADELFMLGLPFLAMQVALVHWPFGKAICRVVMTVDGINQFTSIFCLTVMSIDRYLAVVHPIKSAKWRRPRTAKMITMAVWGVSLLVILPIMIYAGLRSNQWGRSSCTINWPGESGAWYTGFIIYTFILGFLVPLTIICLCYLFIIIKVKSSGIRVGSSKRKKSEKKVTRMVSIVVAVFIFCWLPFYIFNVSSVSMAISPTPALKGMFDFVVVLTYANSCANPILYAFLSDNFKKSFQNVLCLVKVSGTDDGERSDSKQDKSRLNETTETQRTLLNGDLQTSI

The inhibition is the change of the read-out against control, counted positive when it falls. With `CC(C)CC(=O)N1CCc2nc(-c3ccc(Br)cc3)nc(N(C)Cc3ccccc3)c2C1` [THPP-1-NC], in data set [1], the inhibition was 15.3%.
For orientation: IC50 means the concentration at which inhibition is half-maximal. High values mean weaker potency, low ones greater potency. In general, Ki refers to the equilibrium dissociation constant of an inhibitor or competing ligand from its target. As for `COCCOc1nc(-c2ccc(Cl)nc2)nc2c1CN(C(=O)c1ncn3ccccc13)CC2` [THPP-1], the inhibition in data set [2] is 0%; in [3], -6.81%; in [4], -4%; in [5] it was 5%; in [6], -10%; in [7], 6%. The inhibition in data set [8] was 11%; in data set [9] (Compound concentration 0.01 uM), -6%; in [9] (Compound concentration 0.1 uM), 21%; in [9] (Compound concentration 1.0 uM) it was 40%; in data set [9] (Compound concentration 10.0 uM) it was 75%; in data set [10], 0%. The inhibition was 2.72% in data set [11]; 1% in [12]; 22% in [13]; 3% in [14]; -1% in data set [15]; 9% in [16]. The inhibition was -1% on Caspase-3 (Homo sapiens); -1% in data set [17]; 5% in data set [18]; 3% in [19]; 22% in the data set listed under Homo sapiens; 22% in data set [20]. The inhibition in data set [22] was 1%; at Caspase-9 (Homo sapiens) it was -5%; in [23], 18%; in data set [24], -1%. The same molecule showed a 50% inhibitory concentration (IC50) at Adenosine Transporter of 1.61 µM. The molecule also returned a Ki on Adenosine Transporter of 0.55 µM. The inhibition at 60 min, 10 µM in data set [21] was 32% (not active).
